# Source: patent US20040067932A1 (priority 2002, published 2004)
# Entries after “also recorded” stand apart in the source; their conditions may differ.
# Experiments:
# rA1 adenosine receptor = biological target: T1, rA1 adenosine receptor (Rattus norvegicus, UniProt P25099); experiment: Binding affinity at rA1 adenosine receptor
# T1 sequence (P25099 1-326): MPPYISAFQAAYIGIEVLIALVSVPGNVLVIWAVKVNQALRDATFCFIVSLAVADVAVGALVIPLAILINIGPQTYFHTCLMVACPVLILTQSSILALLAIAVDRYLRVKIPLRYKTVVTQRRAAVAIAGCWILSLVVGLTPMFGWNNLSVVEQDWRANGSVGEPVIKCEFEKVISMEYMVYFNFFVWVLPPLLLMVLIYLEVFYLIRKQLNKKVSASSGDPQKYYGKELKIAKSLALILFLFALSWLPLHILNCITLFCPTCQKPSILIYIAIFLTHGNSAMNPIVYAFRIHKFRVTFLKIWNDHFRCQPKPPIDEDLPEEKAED
# [1] = system: human melanoma A375 cell line; experiment: MTT growth inhibitory assay, A375; format: cell-based
# Procedure: (§5) One of the growth inhibitory assays is the MTT assay. Cells (1000-1500 cells/well) are seeded in a 96-well micro culture plate in a total volume of 100 μl/well. After overnight incubation in a humidified incubator at 37° C. with 5% CO2-95% air, chemotherapeutic drug solutions diluted with culture medium at various concentrations are added in the amount of 100 μl to each well. The plates are placed in a humidified incubator at 37° C. with 5% CO2-95% air for 7-10 days. The plates are then centrifuged briefly and 100 μl of the growth medium is removed. Cell cultures are incubated with 50 μl of MTT [3-(4,5-dimethylthiazol-2-yl)-2,5-diphenyl-tetrazolium bromide] reagent (1 mg/ml in Dulbecco's phosphate-buffered saline) for 4 hr at 37° C. The resultant purple formazan precipitate is solubilized with 200 μl of 0.04 N HCl in isopropanol. Absorbance is measured at a wavelength of 595 nm and at a reference wavelength of 655 nm using a Bio-Rad Model 3550 Microplate Reader. Preferably, all tests are run in duplicate for each dose level.
# (§6) The EZED50 computer program estimates the concentration of agent that inhibits cell growth by 50% as compared to the control cells. This is termed the IC50 and is determined by curve fitting test data using the following four logistic equation. [formula]
# (§7) Inhibitory assay testing is also used to determine enhanced therapeutic effects from combining A3 receptor antagonists with other tumor inhibiting agents. The inhibitory cell growth assays are run with and without selected concentrations of A3 receptor antagonists. An enhanced therapeutic effect is present when the IC50 of the tumor inhibiting agent is lower with the A3 receptor antagonist.
# (§8) Quantitatively, the enhancement factor (EF) is calculated by dividing the IC50 value of the tumor inhibiting agent for a tumor cell line by the IC50 value of the agent with A3 receptor antagonist for the same cell line: [formula]
# [2] = system: human colon carcinoma HT29 cell line; experiment: MTT growth inhibitory assay, HT29; format: cell-based
# Procedure: as §5, §6, §7, §8
# [3] = system: human pancreatic cancer Panc-1; experiment: MTT growth inhibitory assay, Panc-1; format: cell-based
# Procedure: as §5, §6, §7, §8
# [4] = system: human lung carcinoma SKMES; experiment: MTT growth inhibitory assay, SKMES; format: cell-based
# Procedure: as §5, §6, §7, §8
# A375 melanoma cells = experiment: Colony formation assay of A375 cells; format: cell-based, human
# Procedure: FIG. 2 illustrates colony formation assay of A375 cells. Cells were treated with different drugs and colonies were counted after 7 days. The values represent the mean ±SEM of four independent experiments. D=DMSO (control); T=paclitaxel, 0.75 ng/ml; M=MRE 3008F20, 10 μM; C=CI-IB-MECA, 10 μM; TM=paclitaxel plus MRE 3008F20; TC=paclitaxel plus CI-IB-MECA treated cells. *P<0.01 TM versus T. Analysis was by ANOVA followed by Dunnett's test.;
# Control plates received the same volume of DMSO alone. After 7 days of growth at 37° C. in humidified atmosphere containing 5% CO2, the cells were fixed with absolute methanol for 5′ and stained with 1/10 Giemsa/phosphate-buffered saline (PBS) staining solution for 10 minutes. Staining solution was removed and colonies of greater than 30 cells were scored as survivors. For each treatment, six individual wells were scored.
# Colony formation assay experiments were performed on A375 melanoma cells treated with increasing concentration of paclitaxel (0.25-75 ng/ml). A3 stimulation is achieved with the selective agonist CI-IB-MECA while A3 blockade is obtained with the selective antagonist MRE 3008F20. […] (FIG. 2)
# A375 cells [5] = experiment: Flow cytometry (PI) G2/M accumulation and sub-G1 apoptosis, A375; format: cell-based, human
# Procedure: (§1) A375 and NCTC2544 adherent cells were trypsinized, mixed with floating cells, washed with PBS and permeabilised in 70% (vol/vol) ethanol/PBS solution at 4° C. for at least 24 hours. Jurkat, HeL023 and PBMC cells were centrifuged for 10 minutes at 1000×g. The cell pellet was then resuspended and permeabilised in 70% (vol/vol) ethanol/PBS solution at 4° C. for at least 24 hours. The cells were washed with PBS and the DNA was stained with a PBS solution, containing 20 μg/ml of propidium iodide and 100 μg/ml of RNAse, at room temperature for 30 minutes. Cells were analysed by FACScan (Becton-Dickinson) and the content of DNA was evaluated by the Cell-LISYS program (Becton-Dickinson). Cell distribution among cell cycle phases and apoptotic cells was evaluated as previously described (Secchiero et al., 2001). Briefly, the cell cycle distribution is shown as the percentage of cells containing 2n (G1 phase), 4n (G2 and M phases), 4n>x>2n. DNA amount (S phase) judged by propidium iodide staining. The apoptotic population is the percentage of cells with DNA content lower than 2n.
# Cell proliferation and apoptosis are quantified by flow cytometer analysis after propidium-iodide (PI) DNA staining.
# HeL023 cells = experiment: Flow cytometry (PI) G2/M accumulation and sub-G1 apoptosis, HeL023; format: cell-based, human; details: MRE3008F20 10 μM
# Procedure: as §1
# (§2) To verify the role of A3 receptor antagonists on paclitaxel and vindesine mediated alteration of cell proliferation and apoptosis, testing was performed with additional cell lines. […] Experimental conditions are similar to those for the A375 cell testing.
# Jurkat cells = experiment: Flow cytometry (PI) G2/M accumulation and sub-G1 apoptosis, Jurkat; format: cell-based, human; details: MRE3008F20 10 μM
# Procedure: as §1, §2
# NCTC2544 cells = experiment: Flow cytometry (PI) G2/M accumulation and sub-G1 apoptosis, NCTC2544; format: cell-based, human; details: NCTC 2544; MRE3008F20 10 μM
# Procedure: as §1, §2
# [6] = biological target: T2, P-gp drug efflux activity in HeL023 cells (Homo sapiens, UniProt P08183); experiment: Rhodamine 123 efflux assay, HeL023 cells; format: cell-based; details: Rh123 efflux, concentrations of Table 11 (MRE3008F20 10 μM)
# T2 construct: nearly all (100±1%) the cells expressing high level of functional P-gp; endogenous in cells; host or cells: HeL023 human erythroleukemia cells
# Procedure: (§3) 5×10^5 cells from each subline were loaded with 50 ng/ml of rhodamine 123 for 30 minutes at 37° C. in medium. The cells were washed and resuspended in dye-staining agent free medium for 3 hours at 37° C. to allow rhodamine 123 efflux. The cells were then washed twice and the fluorescence of intracellular rhodamine 123 were analysed with Flow cytometer (residual fluorescence FRES). The fluorescence was compared with loaded cells maintained at 4° C. to prevent drug export (maximal fluorescence FMAX). […] Cells from each subline that were not being exposed to rhodamine 123 were used as negative controls.
# (§4) Rhodamine 123 (Rh123) retention, a P-gp functional assay, was studied in all cell lines. This assay was performed by incubating cells with Rh123 and determining Rh123 accumulation by measuring its fluorescence. The maximum load of Rh123 (FMAX) was quantified at the end of treatment harvesting the cells and storing them at 4° C. to prevent any active Rh123 efflux . The P-gp drug efflux was allowed incubating Rh123-loaded cells in fresh new medium Rh123-free for 3 hours at 37° C. After this incubation, residual fluorescence (FRES) was measured and compared to FMAX.
# [7] = biological target: T3, P-gp drug efflux activity in A375 cells (Homo sapiens, UniProt P08183); experiment: Rhodamine 123 efflux assay, A375 cells; format: cell-based
# T3 construct: endogenous in cells; host or cells: A375 human melanoma cells (ATCC)
# Procedure: as §3, §4
# A375 cells [8] = experiment: Metabolic (MEK/ERK/p38MAPK) inhibitor signalling study by flow cytometry, A375; format: cell-based, human; details: U0126 30 μM; for prevention of MRE3008F20-induced accumulation in G2/M: MRE3008F20 10 μM
# T2 sequence (P08183 whole entry): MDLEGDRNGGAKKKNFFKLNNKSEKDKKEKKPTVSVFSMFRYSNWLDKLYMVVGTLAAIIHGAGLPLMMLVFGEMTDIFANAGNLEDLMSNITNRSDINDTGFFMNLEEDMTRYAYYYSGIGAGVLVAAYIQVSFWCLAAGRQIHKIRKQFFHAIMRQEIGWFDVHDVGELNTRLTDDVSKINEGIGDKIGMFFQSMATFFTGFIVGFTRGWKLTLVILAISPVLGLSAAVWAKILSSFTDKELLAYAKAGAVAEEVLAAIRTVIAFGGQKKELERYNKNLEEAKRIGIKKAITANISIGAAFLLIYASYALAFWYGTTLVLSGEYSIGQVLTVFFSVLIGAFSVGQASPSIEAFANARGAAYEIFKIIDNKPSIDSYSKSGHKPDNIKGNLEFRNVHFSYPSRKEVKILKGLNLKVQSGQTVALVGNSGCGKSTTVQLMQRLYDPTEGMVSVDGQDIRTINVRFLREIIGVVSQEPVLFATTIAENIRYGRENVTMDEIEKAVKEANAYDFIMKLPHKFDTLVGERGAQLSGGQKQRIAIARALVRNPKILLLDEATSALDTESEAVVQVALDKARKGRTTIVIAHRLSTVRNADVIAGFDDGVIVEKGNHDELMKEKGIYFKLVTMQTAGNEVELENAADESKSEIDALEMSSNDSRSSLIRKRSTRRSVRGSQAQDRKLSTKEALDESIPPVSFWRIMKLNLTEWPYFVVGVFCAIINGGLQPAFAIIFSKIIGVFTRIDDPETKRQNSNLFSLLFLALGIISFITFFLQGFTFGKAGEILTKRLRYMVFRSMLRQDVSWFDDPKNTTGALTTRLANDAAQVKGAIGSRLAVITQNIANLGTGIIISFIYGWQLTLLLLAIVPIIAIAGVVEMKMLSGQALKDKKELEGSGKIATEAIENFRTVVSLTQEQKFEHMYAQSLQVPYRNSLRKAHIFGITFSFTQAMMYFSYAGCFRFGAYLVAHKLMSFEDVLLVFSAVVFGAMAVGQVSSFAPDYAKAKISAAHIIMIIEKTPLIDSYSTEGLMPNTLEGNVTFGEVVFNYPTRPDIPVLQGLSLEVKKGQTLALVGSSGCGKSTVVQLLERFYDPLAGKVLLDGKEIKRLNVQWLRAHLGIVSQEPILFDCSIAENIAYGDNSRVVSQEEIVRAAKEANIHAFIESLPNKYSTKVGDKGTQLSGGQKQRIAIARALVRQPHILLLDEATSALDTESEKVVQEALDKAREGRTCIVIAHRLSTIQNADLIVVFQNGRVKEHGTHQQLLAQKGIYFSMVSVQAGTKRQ
# T3 sequence (P08183 whole entry): as above
compound,measurement,setting,value
CCCn1cc2c(nc(NC(=O)Nc3ccc(OC)cc3)n3nc(-c4ccco4)nc23)n1 [MRE3008F20],Ki,rA1 adenosine receptor,> 10 µM
same,Enhancement Factor for docetaxel,"[1]; A375, A3 antagonist 1 μg/ml",63.3
same,Enhancement Factor for paclitaxel,"[1]; A375, A3 antagonist 1 μg/ml",7.1
same,Enhancement Factor for docetaxel,"[1]; A375, A3 antagonist 3 μg/ml",6.9
same,Enhancement Factor for paclitaxel,"[1]; A375, A3 antagonist 3 μg/ml",6.4
same,Enhancement Factor for docetaxel,"[1]; A375, A3 antagonist 10 μg/ml",5.3
same,Enhancement Factor for paclitaxel,"[1]; A375, A3 antagonist 10 μg/ml, paclitaxel 0.0001-0.05 μg/ml",7.1
same,enhancement factor for paclitaxel at all three concentrations,"[1]; A375, A3 antagonist 1, 3 and 10 μg/ml",6.4-7.1
same,IC50,"[1]; Homo sapiens, A-375, Human Melanoma A375, read-out: IC50 growth inhibition, agent used separately",91.3 ± 1.5 µg/mL
same,inhibition at 10 µg/mL,"[1]; Homo sapiens, A-375, A375, 10 μg/ml, read-out: growth inhibition in the presence of A3 antagonist alone",30 to 45%
same,Enhancement Factor for docetaxel,"[2]; HT29, A3 antagonist 1 μg/ml",15.0
same,Enhancement Factor for doxorubicin,"[2]; HT29, A3 antagonist 1 μg/ml",1.6
same,Enhancement Factor for irinotecan HCl,"[2]; HT29, A3 antagonist 1 μg/ml",1.8
same,Enhancement Factor for paclitaxel,"[2]; HT29, A3 antagonist 1 μg/ml",2.9
same,IC50,"[2]; HT-29, Human Colon Carcinoma HT29, read-out: IC50 growth inhibition, agent used separately",39.4 ± 7.7 µg/mL
same,IC50,"[3]; Human Pancreatic Cancer Panc-1, read-out: IC50 growth inhibition, agent used separately",15.8 ± 13.5 µg/mL
same,Enhancement Factor for docetaxel,"[3]; Panc-1, A3 antagonist 1 μg/ml",1.8
same,Enhancement Factor for paclitaxel,"[3]; Panc-1, A3 antagonist 1 μg/ml",1.9
same,IC50,"[4]; Human Lung Carcinoma SKMES, read-out: IC50 growth inhibition, agent used separately",19 ± 1.2 µg/mL
same,Enhancement Factor for docetaxel,"[4]; SKMES, A3 antagonist 1 μg/ml",3.6
same,Enhancement Factor for irinotecan HCL,"[4]; SKMES, A3 antagonist 1 μg/ml",2.1
same,Enhancement Factor for paclitaxel,"[4]; SKMES, A3 antagonist 1 μg/ml",4.1
same,Enhancement Factor for vinblastine,"[4]; SKMES, A3 antagonist 1 μg/ml",1.2
same,"colony formation, % of DMSO control","A375 melanoma cells; 10 μM alone, 7 days",59%
same,colony formation predicted by geometrical combination,A375 melanoma cells; MRE 3008F20 10 μM plus paclitaxel 0.75 ng/ml,38%
same,paclitaxel ECMAX with A3 antagonist,"A375 cells [5]; A375, MRE3008F20 10 μM",3.04 ± 0.32 ng/mL
same,vindesine ECMAX with A3 antagonist,"A375 cells [5]; A375, MRE3008F20 10 μM",1.66 ± 0.20 nM
same,EC50,"A375 cells [5]; Homo sapiens, A-375, read-out: SEC50 (dose inducing 50% of the enhancing activity to vindesine)",0.55 ± 0.06 µM
same,paclitaxel ECMAX with A3 antagonist,HeL023 cells,3.19 ± 0.30 ng/mL
same,vindesine ECMAX with A3 antagonist,HeL023 cells,1.05 ± 0.09 nM
same,paclitaxel ECMAX with A3 antagonist,Jurkat cells,2.29 ± 0.31 ng/mL
same,paclitaxel ECMAX with A3 antagonist,NCTC2544 cells,2.55 ± 0.24 ng/mL
same,vindesine ECMAX with A3 antagonist,NCTC2544 cells,1.34 ± 0.15 nM
same,inhibition of P-gp activity (in words),[6],near total P-gp inhibition; also recorded: strong inhibitors of P-gp activity
same,blockade of P-gp mediated Rh123 transport (in words),"[7]; 10 μM, FRES comparable to FMAX",completely blockade of P-gp mediated Rh123 transport
N#CC(=C(/N)Sc1ccccc1N)/C(C#N)=C(\N)Sc1ccccc1N [U0126],effect on MRE 3008F20 blockade of P-gp (in words),"[7]; U0126 30 μM for 30 minutes, then MRE3008F20 10 μM",failed to prevent MRE 3008F20 blockade of P-gp
same,effect on G2/M accumulation rate of paclitaxel or vindesine alone (in words),"A375 cells [8]; PD98059 20 μM, SB203580 1 μM",did not alter
same,prevention of MRE3008F20-induced accumulation in G2/M,A375 cells [8]; in presence of paclitaxel,23±5%
same,prevention of MRE3008F20-induced accumulation in G2/M,A375 cells [8]; in presence of vindesine 1 nM,48±5%
same,reduction of apoptosis induced by paclitaxel,"A375 cells [8]; paclitaxel 25 ng/ml, PD98059 20 μM, SB203580 1 μM",73±10%
